# According to PubChem BioAssay AID493142 (Sanford-Burnham Center for Chemical Genomics, 2011):
# Where “and” joins values, the source holds several entries; their conditions need not be identical. Identical values can stand only once. Calls of active or inactive are those of the source.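 Rule for the calls: active = mean IC50 below 100 µM; inactive = the rest.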
# Target: Intestinal alkaline phosphatase (Alpi) [Mus musculus]
# Test: inhibitors of murine Alpi enzyme – biochemical, ortholog specificity, luminescence, selectivity assay for human IAP inhibitor project, SAR follow-up (AID 493142)
# Conditions: Purified mouse IAP, CDP-Star luminescence, 30 min
row,SMILES,IC50
1,CC(C)(C)c1ccc(/C=N/N=C2\NC(=O)C(CC(=O)O)S2)cc1 (stereo unspecified),> 100 µM (inactive)
2,COc1cc(C=NNC(=S)Nc2cccc(S(=O)(=O)N(C)C)c2)ccc1O,> 100 µM (inactive)
3,COc1ccc(Cl)cc1Nc1nc(-c2ccc(O)c(O)c2)cs1,5.23 µM and 4.64 µM
4,S=C(NCCC(c1ccccc1)c1ccccc1)Nc1ccc(Cl)cc1Cl,> 100 µM (inactive)
5,COc1cc(C=NNC(=S)Nc2cccc(S(=O)(=O)N(C)C)c2)cc(OC)c1O,> 100 µM (inactive)
6,CCN(CC)S(=O)(=O)c1ccc(-c2csc(=Nc3cccc4ccccc34)n2C)cc1,> 100 µM (inactive)
7,Cc1ccc(Nc2nc(-c3ccc(O)c(C(N)=O)c3)cs2)cc1,> 100 µM (inactive)
8,Cc1ccc(-c2ccc(/C=N/N=C3\NC(=O)C(CC(=O)O)S3)o2)c([N+](=O)[O-])c1 (stereo unspecified),> 100 µM (inactive)
9,Cc1cccc(Nc2nc(-c3ccc(O)c(C(N)=O)c3)cs2)c1,> 100 µM (inactive)
10,COC(=O)/C=C1\SC(N=Nc2c(O)[nH]c3ccccc23)=NC1=O,> 100 µM (inactive)
11,CCc1ccccc1Nc1nc(-c2ccc(O)c(O)c2)cs1,5.47 µM and 4.15 µM
12,COc1cc(/C=N/N=C2\NC(=O)C(CC(=O)O)S2)cc(OC)c1OC (stereo unspecified),> 100 µM (inactive)
13,FC(F)(F)c1cccc(NC(=S)NCCC(c2ccccc2)c2ccccc2)c1,> 100 µM (inactive)
14,COC(=O)/C=C1\S/C(=N/N=C/c2ccc(Cl)cc2)NC1=O,> 100 µM (inactive)
15,Cc1cc(=O)oc2cc(NC(=S)NCCC(c3ccccc3)c3ccccc3)ccc12,> 100 µM (inactive)
16,Cc1cccc(NC(=S)NN=Cc2ccc3c(c2)OCO3)c1,> 100 µM (inactive)
17,COc1ccc(/C=N/N=C2\NC(=O)C(CC(=O)O)S2)c(OC)c1 (stereo unspecified),> 100 µM (inactive)
18,Cc1cccc(Nc2nc(-c3ccc(O)c(O)c3)cs2)c1,7.77 µM
19,Cn1c(=S)n(N=Cc2ccc3c(c2)OCO3)c2ccccc21,> 100 µM (inactive)
20,O=[N+]([O-])c1ccccc1NC(=S)NN=Cc1ccc(O)c(O)c1,6.64 µM
21,Cc1ccc(Nc2nc(-c3ccc(O)cc3O)cs2)cc1,> 100 µM (inactive)
22,O=C(O)CC1S/C(=N/N=C/c2ccco2)NC1=O (stereo unspecified),> 100 µM (inactive)
23,COc1ccc(-c2csc(Nc3cccc4ccccc34)n2)cc1,> 100 µM (inactive)
24,Cc1cccc2sc(NNC(=O)c3ccc4c(c3)OCCO4)nc12,76 µM
25,COC(=O)/C=C1/S/C(=N/NC(=O)c2ccc(Cl)cc2Cl)NC1=O,> 100 µM (inactive)
26,Cc1c(Cl)cccc1Nc1nc(-c2ccc(O)c(O)c2)cs1,4.43 µM and 12 µM

row,SMILES,IC50
1,COc1cc(C(=O)NNC(=S)Nc2ccc(S(N)(=O)=O)cc2)cc(OC)c1OC,> 100 µM (inactive)
2,Cc1cccc(NC(=S)NNC(=O)c2ccc3c(c2)OCO3)c1,58.5 µM
3,COc1cc([N+](=O)[O-])ccc1NC(=S)NCCC(c1ccccc1)c1ccccc1,> 100 µM (inactive)
4,Oc1ccc(Nc2nc(-c3ccc(O)c(O)c3)cs2)cc1,1.4 µM
5,COc1ccc(-c2csc(Nc3cccc4ccccc34)n2)cc1F,> 100 µM (inactive)
6,CC(=NNC(=S)Nc1ccccc1)c1ccc2c(c1)OCO2,> 100 µM (inactive)
7,COc1ccc(/C=N/N=C2/NC(=O)C(CC(=O)O)S2)cc1OC (stereo unspecified),> 100 µM (inactive)
8,Cc1cccc(C)c1NC(=S)N/N=C/c1ccc(O)c(O)c1O,58.3 µM
9,COC(=O)/C=C1/S/C(=N/NC(=O)c2ccccc2OC)NC1=O,> 100 µM (inactive)
10,COc1ccc(C=NN=C2SC(CC(=O)O)C(=O)N2c2ccc(O)cc2)cc1 (stereo unspecified),> 100 µM (inactive)
11,COC(=O)/C=C1/S/C(=N/NC(=O)c2ccccc2C)NC1=O,> 100 µM (inactive)
12,Cc1ccc(Nc2nc(-c3ccc(O)cc3O)cs2)cc1F,> 100 µM (inactive)
13,COc1cc(C=NN=C2SC(CC(=O)O)C(=O)N2c2ccc(O)cc2)ccc1O (stereo unspecified),> 100 µM (inactive)
14,COc1ccc(C=Nn2c(=S)n(C)c3ccccc32)cc1OC,> 100 µM (inactive)
15,COC(=O)/C=C1/S/C(=N/NC(=O)c2ccc(OC)cc2)NC1=O,> 100 µM (inactive)
16,Cc1ccc2nc(NNC(=O)c3ccc4c(c3)OCCO4)sc2c1,57.7 µM
17,Oc1ccc(-c2csc(Nc3ccccc3)n2)c(O)c1,> 100 µM (inactive)
18,CCOc1cc(C=N/N=C2/NC(=O)C(CC(=O)O)S2)ccc1OCc1ccccc1Cl (stereo unspecified),> 100 µM (inactive)
19,O=S(=O)(c1ccc(NC(=S)N/N=C/c2ccc(O)c(O)c2O)cc1)N1CCOCC1,80.8 µM
20,COc1cc([N+](=O)[O-])ccc1NC(=S)NNC(=O)c1ccc2c(c1)OCO2,95.4 µM
21,Cc1ccc(Nc2nc(-c3ccc(O)c(O)c3)cs2)cc1F,9.66 µM
22,Cc1ccc(C)c(Nc2nc(-c3ccc(O)cc3O)cs2)c1,> 100 µM (inactive)
23,COc1ccc(NC(=S)NCCC(c2ccccc2)c2ccccc2)cc1,> 100 µM (inactive)
24,COC(=O)/C=C1\S/C(=N/N=C/CC(=O)OC)NC1=O,> 100 µM (inactive)
25,O=[N+]([O-])c1ccccc1NC(=S)N/N=C/c1ccc(O)c(O)c1O,22.2 µM
26,Cc1ccc(Nc2nc(-c3ccc(O)cc3O)cs2)cc1C,> 100 µM (inactive)

row,SMILES,IC50
1,Cc1ccc(Nc2nc(-c3ccc(O)c(O)c3)cs2)cc1,6.64 µM
2,COc1cc(C=NNC(=S)Nc2cccc(C(=O)O)c2)ccc1O,> 100 µM (inactive)
3,NS(=O)(=O)c1ccc(Nc2nc(-c3ccc(O)cc3O)cs2)cc1,49 µM
4,COC(=O)C/C=N/N=C1\NC(=O)/C(=C/C(=O)O)S1,> 100 µM (inactive)
5,COc1ccc(C(=O)NNC(=S)NC2CCCCC2)cc1OC,88.1 µM
6,CCOc1ccc(Nc2nc(-c3ccc(O)c(O)c3)cs2)cc1,6.98 µM
7,COc1cc(/C=N/N=C2/SCC(=O)N2c2ccc(O)cc2)ccc1O,> 100 µM (inactive)
8,CN(C)S(=O)(=O)c1cccc(NC(=S)NN=Cc2ccc(O)c(O)c2O)c1,27.6 µM
9,Cc1cc(C)cc(Nc2nc(-c3ccc(O)cc3O)cs2)c1,> 100 µM (inactive)
10,O=[N+]([O-])c1ccc(NC(=S)NCCC(c2ccccc2)c2ccccc2)cc1,> 100 µM (inactive)
11,COC(=O)/C=C1/S/C(=N/N=Cc2ccc(N(C)C)cc2)NC1=O,> 100 µM (inactive)
12,COc1cccc(Nc2nc(-c3ccc(O)cc3)cs2)c1,> 100 µM (inactive)
13,COC(=O)/C=C1/S/C(=N/NC(=O)c2ccccc2)NC1=O,> 100 µM (inactive)
14,O=S(=O)(Nc1ncccn1)c1ccc(NC(=S)NCCC(c2ccccc2)c2ccccc2)cc1,> 100 µM (inactive)
15,CCOc1cc(C=NNC(=S)NC2CCCCC2)ccc1O,> 100 µM (inactive)
16,N#CCCn1cc(/C=N/N=C2/NC(=O)C(CC(=O)O)S2)c(-c2ccc(F)cc2)n1 (stereo unspecified),> 100 µM (inactive)
17,CCOc1cc(/C=N/N=C2\NC(=O)C(CC(=O)O)S2)ccc1O (stereo unspecified),> 100 µM (inactive)
18,COc1ccc(C=NNC(=S)Nc2ccccc2[N+](=O)[O-])cc1O,> 100 µM (inactive)
19,Cc1ccc2sc(NNC(=O)c3ccc4c(c3)OCCO4)nc2c1C,> 100 µM (inactive)
20,O=S(=O)(c1ccc(NC(=S)N/N=C/c2ccc(O)c(O)c2)cc1)N1CCOCC1,1.02 µM
21,Cc1ccc(Cl)cc1Nc1nc(-c2ccc(O)c(O)c2)cs1,3.85 µM
22,Oc1ccc(-c2csc(Nc3cccc4ccccc34)n2)cc1O,2.72 µM and 5.26 µM
23,Oc1ccc(-c2csc(Nc3ccc(F)cc3)n2)cc1O,5.59 µM
24,NS(=O)(=O)c1ccc(Nc2nc(-c3ccc(O)c(O)c3)cs2)cc1,2.11 µM
